Results from patent publication US11548884B2, “Cyclic amidine compounds for the treatment of autoimmune disease” (Hoffmann-La Roche Inc., priority 2018, dated 2023).

Target: T1, human TLR9 (Homo sapiens, UniProt Q9NR96)
T1 sequence (Q9NR96 26-1032): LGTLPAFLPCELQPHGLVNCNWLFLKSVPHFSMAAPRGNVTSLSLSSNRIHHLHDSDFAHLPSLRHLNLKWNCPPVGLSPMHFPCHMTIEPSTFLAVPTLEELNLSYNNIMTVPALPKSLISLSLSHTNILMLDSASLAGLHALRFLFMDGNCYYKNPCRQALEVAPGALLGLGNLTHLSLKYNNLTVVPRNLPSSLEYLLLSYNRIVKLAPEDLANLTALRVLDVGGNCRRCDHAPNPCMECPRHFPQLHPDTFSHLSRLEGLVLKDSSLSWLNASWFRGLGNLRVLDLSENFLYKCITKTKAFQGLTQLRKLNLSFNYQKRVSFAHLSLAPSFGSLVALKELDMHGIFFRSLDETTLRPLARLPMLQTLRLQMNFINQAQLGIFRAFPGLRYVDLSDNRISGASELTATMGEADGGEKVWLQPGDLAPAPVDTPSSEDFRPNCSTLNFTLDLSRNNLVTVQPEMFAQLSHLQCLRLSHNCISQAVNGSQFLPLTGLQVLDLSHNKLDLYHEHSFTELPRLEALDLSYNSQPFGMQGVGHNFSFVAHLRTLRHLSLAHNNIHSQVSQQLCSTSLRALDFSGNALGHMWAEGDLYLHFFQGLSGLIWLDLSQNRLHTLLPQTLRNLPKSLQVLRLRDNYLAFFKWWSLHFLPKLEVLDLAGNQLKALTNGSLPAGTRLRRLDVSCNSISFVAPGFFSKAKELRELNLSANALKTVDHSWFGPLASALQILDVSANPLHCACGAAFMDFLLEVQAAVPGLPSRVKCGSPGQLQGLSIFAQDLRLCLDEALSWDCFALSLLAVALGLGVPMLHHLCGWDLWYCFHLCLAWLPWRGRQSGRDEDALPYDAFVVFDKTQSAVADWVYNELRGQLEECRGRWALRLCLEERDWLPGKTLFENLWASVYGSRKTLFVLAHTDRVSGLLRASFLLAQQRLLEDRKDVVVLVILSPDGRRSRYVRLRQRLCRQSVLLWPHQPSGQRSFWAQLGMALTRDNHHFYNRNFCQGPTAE
Assay: HEK293-Blue-hTLR-9 cells assay (SEAP reporter, ODN2006 stimulation)
Type: cell-based
Conditions: HEK293-Blue-hTLR9 cells, ODN2006 ligand, 20 h incubation
Description: The following tests were carried out in order to determine the activity of the compounds of formula (I) in HEK293-Blue-hTLR-7/8/9 cells assay.
HEK293-Blue-hTLR-9 Cells Assay:
A stable HEK293-Blue-hTLR-9 cell line was purchased from InvivoGen (Cat. #: hkb-htlr9, San Diego, Calif., USA). These cells were originally designed for studying the stimulation of human TLR9 by monitoring the activation of NF-κB. A SEAP (secreted embryonic alkaline phosphatase) reporter gene was placed under the control of the IFN-β minimal promoter fused to five NF-κB and AP-1-binding sites. The SEAP was induced by activating NF-κB and AP-1 via stimulating HEK-Blue hTLR9 cells with TLR9 ligands. Therefore the reporter expression was declined by TLR9 antagonist under the stimulation of a ligand, such as ODN2006 (Cat. #: tlrl-2006-1, Invivogen, San Diego, Calif., USA), for incubation of 20 h. The cell culture supernatant SEAP reporter activity was determined using QUANTI-Blue™ kit (Cat. #: rep-qb1, Invivogen, San Diego, Calif., USA) at a wavelength of 640 nm, a detection medium that turns purple or blue in the presence of alkaline phosphatase.
HEK293-Blue-hTLR9 cells were incubated at a density of 250,000˜450,000 cells/mL in a volume of 170 μL in a 96-well plate in Dulbecco's Modified Eagle's medium (DMEM) containing 4.5 g/L glucose, 50 U/mL penicillin, […], 2 mM L-glutamine, 10% (v/v) heat-inactivated fetal bovine serum with addition of 20 μL test compound in a serial dilution in the presence of final DMSO at 1% and 10 μL of 20 uM ODN2006 in above DMEM, perform incubation under 37° C. in a CO2 incubator for 20 h. Then 20 μL of the supernatant from each well was incubated with 180 μL Quanti-blue substrate solution at 37° C. for 2 h and the absorbance was read at 620˜655 nm using a spectrophotometer. The signalling pathway that TLR9 activation leads to downstream NF-κB activation has been widely accepted, and therefore similar reporter assay was modified for evaluating TLR9 antagonist.

Q: Which IC50 does the source give for C[C@@H]1CN(c2ccc(C#N)c3ncccc23)C[C@H](C2=Nc3cccc(N4CCNCC4)c3CN2)O1 [Example 6, 5-[(2R,6R)-2-methyl-6-(5-piperazin-1-yl-3,4-dihydroquinazolin-2-yl)morpholin-4-yl]quinoline-8-carbonitrile] here?
A: 50 nM

Q: How did the IC50 turn out when C[C@@H]1CN(c2ccc(C#N)c3ncccc23)C[C@H](C2=Nc3ccc(N4CCNCC4)cc3CN2)O1 [Example 7, 5-[(2R,6R)-2-methyl-6-(6-piperazin-1-yl-3,4-dihydroquinazolin-2-yl)morpholin-4-yl]quinoline-8-carbonitrile] was run?
A: 102 nM

Q: With C[C@@H]1CN(c2ccc(C#N)c3ncccc23)C[C@H](C2=Nc3cc(N4CCNCC4)ccc3CN2)O1 [Example 8, 5-[(2R,6R)-2-methyl-6-(7-piperazin-1-yl-3,4-dihydroquinazolin-2-yl)morpholin-4-yl]quinoline-8-carbonitrile] as the compound, how does the IC50 read?
A: 65 nM

Q: C[C@@H]1CN(c2ccc(C#N)c3ncccc23)C[C@H](C2=Nc3c(cccc3N3CCNCC3)CN2)O1 [Example 9, 5-[(2R,6R)-2-methyl-6-(8-piperazin-1-yl-3,4-dihydroquinazolin-2-yl)morpholin-4-yl]quinoline-8-carbonitrile] was tested. Which IC50 did it give?
A: 97 nM

Q: With C[C@@H]1CN(c2ccc(C#N)c3ncccc23)C[C@H](C2=Nc3cccc(N4CCN(C)CC4)c3CN2)O1 [Example 12, 5-[(2R,6R)-2-methyl-6-[5-(4-methylpiperazin-1-yl)-3,4-dihydroquinazolin-2-yl]morpholin-4-yl]quinoline-8-carbonitrile] as the compound, how does the IC50 read?
A: 42 nM

Q: How did the IC50 turn out when C[C@@H]1CN(c2ccc(C#N)c3ncccc23)C[C@H](C2=Nc3cccc(N4CCC5(CCNC5)C4)c3CN2)O1 (stereo partly drawn) [Example 13, 5-[(2R,6R)-2-[5-(2,7-diazaspiro[4.4]nonan-2-yl)-3,4-dihydroquinazolin-2-yl]-6-methyl-morpholin-4-yl]quinoline-8-carbonitrile] was run?
A: 313 nM

Q: C[C@@H]1CN(c2ccc(C#N)c3ncccc23)C[C@H](C2=Nc3cccc(C4=CCNCC4)c3CCN2)O1 [Example 16, 5-[(2R,6R)-2-methyl-6-[6-(1,2,3,6-tetrahydropyridin-4-yl)-4,5-dihydro-3H-1,3-benzodiazepin-2-yl]morpholin-4-yl]quinoline-8-carbonitrile] was tested. Which IC50 did it give?
A: 64 nM

Q: For C[C@@H]1CN(c2ccc(C#N)c3ncccc23)C[C@H](C2=Nc3ccc(N4CCNCC4)cc3CCN2)O1 [Example 17, 5-[(2R,6R)-2-methyl-6-(7-piperazin-1-yl-4,5-dihydro-3H-1,3-benzodiazepin-2-yl)morpholin-4-yl]quinoline-8-carbonitrile], which IC50 is on record?
A: 49 nM

Q: For C[C@@H]1CN(c2ccc(C#N)c3ncccc23)C[C@H](C2=Nc3cccc(C4CCNCC4)c3CN2)O1 [Example 18, 5-[(2R,6R)-2-methyl-6-[5-(4-piperidyl)-3,4-dihydroquinazolin-2-yl]morpholin-4-yl]quinoline-8-carbonitrile], which IC50 is on record?
A: 90 nM
